{"source": "ChEMBL document CHEMBL1275466", "about": "“Diversity of penicillin binding proteins among clinical Streptococcus pneumoniae strains from Portugal” (2008)", "type_in_all_cases": "functional", "key": {"[1]": {"test_system": "Streptococcus pneumoniae", "experiment": "Antibacterial activity against Streptococcus pneumoniae R6"}, "[2]": {"test_system": "Streptococcus pneumoniae", "experiment": "Antibacterial activity against Streptococcus pneumoniae serotype 4 ATCC BAA-334 harboring mutant PBP1A"}, "[3]": {"test_system": "Streptococcus pneumoniae", "experiment": "Antibacterial activity against Streptococcus pneumoniae serotype 9V URA4929 harboring mutant PBP1A"}, "[4]": {"test_system": "Streptococcus pneumoniae", "experiment": "Antibacterial activity against tetracycline- erythromycin- clindamycin-resistant Streptococcus pneumoniae serotype 6B URA4376 harboring mutant PBP1A"}, "[5]": {"test_system": "Streptococcus pneumoniae", "experiment": "Antibacterial activity against Streptococcus pneumoniae serotype 3 URA3537 harboring mutant PBP1A"}, "[6]": {"test_system": "Streptococcus pneumoniae", "experiment": "Antibacterial activity against Streptococcus pneumoniae URA2543 harboring mutant PBP1A"}, "[7]": {"test_system": "Streptococcus pneumoniae", "experiment": "Antibacterial activity against erythromycin-resistant Streptococcus pneumoniae serotype 14 URA4933 harboring mutant PBP2X and PBP1A"}, "[8]": {"test_system": "Streptococcus pneumoniae", "experiment": "Antibacterial activity against multidrug resistant Streptococcus pneumoniae serotype 23 URA3558 harboring mutant PBP2X and PBP1A"}, "[9]": {"test_system": "Streptococcus pneumoniae", "experiment": "Antibacterial activity against Streptococcus pneumoniae serotype 19F URA4087 harboring mutant PBP2X and PBP1A"}, "[10]": {"test_system": "Streptococcus pneumoniae", "experiment": "Antibacterial activity against multidrug resistant Streptococcus pneumoniae serotype 6B URA4566 harboring mutant PBP2B PBP2X and PBP1A"}, "[11]": {"test_system": "Streptococcus pneumoniae", "experiment": "Antibacterial activity against Streptococcus pneumoniae serotype 22 URA2542 harboring PBP2B harboring mutant PBP2B PBP2X and PBP1A"}, "[12]": {"test_system": "Streptococcus pneumoniae", "experiment": "Antibacterial activity against penicillin-resistant Streptococcus pneumoniae serotype 19A URA3635 harboring mutant PBP2B PBP2X and PBP1A"}, "[13]": {"test_system": "Streptococcus pneumoniae", "experiment": "Antibacterial activity against penicillin-resistant Streptococcus pneumoniae serotype 14 URA4731 harboring mutant PBP2B PBP2X and PBP1A"}, "[14]": {"test_system": "Streptococcus pneumoniae", "experiment": "Antibacterial activity against penicillin-resistant Streptococcus pneumoniae serotype 23F URA5391 harboring mutant PBP2B PBP2X and PBP1A"}, "[15]": {"test_system": "Streptococcus pneumoniae", "experiment": "Antibacterial activity against multidrug resistant Streptococcus pneumoniae serotype 15A URA5779 harboring mutant PBP2B PBP2X and PBP1A"}, "[16]": {"test_system": "Streptococcus pneumoniae", "experiment": "Antibacterial activity against multidrug resistant Streptococcus pneumoniae serotype 6B ATCC 700670 harboring mutant PBP2B PBP2X and PBP1A"}, "[17]": {"test_system": "Streptococcus pneumoniae", "experiment": "Antibacterial activity against multidrug resistant Streptococcus pneumoniae serotype 19A ATCC 700673 harboring mutant PBP2B PBP2X and PBP1A"}, "[18]": {"test_system": "Streptococcus pneumoniae", "experiment": "Antibacterial activity against multidrug resistant Streptococcus pneumoniae serotype 19A URA5805 harboring mutant PBP2B PBP2X and PBP1A"}, "[19]": {"test_system": "Streptococcus pneumoniae", "experiment": "Antibacterial activity against multidrug resistant Streptococcus pneumoniae serotype 23F ATCC 51916 harboring mutant PBP2B PBP2X and PBP1A"}, "[20]": {"test_system": "Streptococcus pneumoniae", "experiment": "Antibacterial activity against penicillin-cefotaxime- ceftriaxone-resistant Streptococcus pneumoniae serotype 14 URA3543 harboring mutant PBP2B PBP2X and PBP1A"}, "[21]": {"test_system": "Streptococcus pneumoniae", "experiment": "Antibacterial activity against penicillin-cefotaxime- ceftriaxone-resistant Streptococcus pneumoniae URA6056 harboring mutant PBP2B PBP2X and PBP1A"}, "[22]": {"test_system": "Streptococcus pneumoniae", "experiment": "Antibacterial activity against penicillin-cefotaxime- ceftriaxone-resistant Streptococcus pneumoniae serotype 14 URA3043 harboring mutant PBP2B PBP2X and PBP1A"}, "[23]": {"test_system": "Streptococcus pneumoniae", "experiment": "Antibacterial activity against multidrug resistant Streptococcus pneumoniae serotype 14 URA4203 harboring mutant PBP2B PBP2X and PBP1A"}, "[24]": {"test_system": "Streptococcus pneumoniae", "experiment": "Antibacterial activity against penicillin-resistant Streptococcus pneumoniae serotype 14 URA5128 harboring mutant PBP2B PBP2X and PBP1A"}, "[25]": {"test_system": "Streptococcus pneumoniae", "experiment": "Antibacterial activity against multidrug resistant Streptococcus pneumoniae serotype 19F URA3699 harboring mutant PBP2B PBP2X and PBP1A"}, "[26]": {"test_system": "Streptococcus pneumoniae", "experiment": "Antibacterial activity against multidrug resistant Streptococcus pneumoniae serotype 24F URA5450 harboring mutant PBP2B PBP2X and PBP1A"}}, "data": [{"smiles": "CC1(C)S[C@@H]2[C@H](NC(=O)Cc3ccccc3)C(=O)N2[C@H]1C(=O)O", "note": "[PENICILLIN G]", "values": [{"measurement": "MIC", "setting": "[1]", "value": 0.0125, "unit": "µg/mL"}, {"measurement": "MIC", "setting": "[2]", "value": 0.0125, "unit": "µg/mL"}, {"measurement": "MIC", "setting": "[3]", "value": 0.0125, "unit": "µg/mL"}, {"measurement": "MIC", "setting": "[4]", "value": 0.0125, "unit": "µg/mL"}, {"measurement": "MIC", "setting": "[5]", "value": 0.0125, "unit": "µg/mL"}, {"measurement": "MIC", "setting": "[6]", "value": 0.025, "unit": "µg/mL"}, {"measurement": "MIC", "setting": "[7]", "value": 0.0125, "unit": "µg/mL"}, {"measurement": "MIC", "setting": "[8]", "value": 0.2, "unit": "µg/mL"}, {"measurement": "MIC", "setting": "[9]", "value": 0.025, "unit": "µg/mL"}, {"measurement": "MIC", "setting": "[10]", "value": 0.1, "unit": "µg/mL"}, {"measurement": "MIC", "setting": "[11]", "value": 0.05, "unit": "µg/mL"}, {"measurement": "MIC", "setting": "[12]", "value": 0.1, "unit": "µg/mL"}, {"measurement": "MIC", "setting": "[13]", "value": 0.1, "unit": "µg/mL"}, {"measurement": "MIC", "setting": "[14]", "value": 0.1, "unit": "µg/mL"}, {"measurement": "MIC", "setting": "[15]", "value": 0.1, "unit": "µg/mL"}, {"measurement": "MIC", "setting": "[16]", "value": 2, "unit": "µg/mL"}, {"measurement": "MIC", "setting": "[17]", "value": 2, "unit": "µg/mL"}, {"measurement": "MIC", "setting": "[18]", "value": 1.6, "unit": "µg/mL"}, {"measurement": "MIC", "setting": "[19]", "value": 0.1, "unit": "µg/mL"}, {"measurement": "MIC", "setting": "[20]", "value": 2, "unit": "µg/mL"}, {"measurement": "MIC", "setting": "[21]", "value": 3.2, "unit": "µg/mL"}, {"measurement": "MIC", "setting": "[22]", "value": 2, "unit": "µg/mL"}, {"measurement": "MIC", "setting": "[23]", "value": 1.6, "unit": "µg/mL"}, {"measurement": "MIC", "setting": "[24]", "value": 0.5, "unit": "µg/mL"}, {"measurement": "MIC", "setting": "[25]", "value": 0.5, "unit": "µg/mL"}, {"measurement": "MIC", "setting": "[26]", "value": 0.5, "unit": "µg/mL"}]}]}
